The source of these data is patent publication US20260125346A1, “Isoquinolinone Derivatives and 4H-Quinolizinone Derivatives and Pharmaceutical Compositions Thereof for the Treatment of Disease” (BeOne Medicines I GmbH, priority 2023, published 2026).

Experiment [1] addresses PI3Kα (p110/p85) kinase (wild type, "WT") (Homo sapiens, UniProt P42336). Kind of experiment: PI3Kα (p110/p85) kinase ADP-Glo Assay. The experiment is classed as biochemical. To be noted: 25 uM ATP. The method, then: PI3Kα (p110/p85) kinase ADP-Glo Assay. Certain compounds disclosed herein were tested for inhibition of PI3Kα (p110/p85) kinase (wild type, “WT”) in assays based on the ADP-Glo™ Kinase Assay methodology. The assays were carried out in 384-well white plates in a reaction mixture containing PI3Kα (p110/p85) kinase, 25 µM ATP, 5.35 µg/mL PI(4,5)P2:PS Lipid Kinase Substrate and […] compound in buffer containing 50 mM HEPES pH7.5, 50 mM NaCl, 3 mM MgCl2, 0.0025% BSA and 2 mM DTT. PI3Kα (p110/p85) kinase was incubated with Lipid Kinase Substrate and compound for 30 minutes at room temperature and the reaction was initiated by the addition of ATP. After reaction at room temperature for 120 minutes, ADP-Glo™ reagents were added to terminate the kinase reaction and deplete the remaining ATP according to the manufacture's instruction (Promega Corporation). After incubation at room temperature for 1 hour, Kinase Detection Reagent (prepared by reconstituting the lyophilized Kinase Detection Substrate with Kinase Detection Buffer of the kit) was added to convert the ADP to ATP and to allow for the newly synthesized ATP to be measured using a luciferase/luciferin reaction. After incubation at room temperature for 0.5 hour, chemiluminescence signals were recorded on a PHERAstar FSX plate reader (BMG Labtech). The chemiluminescence generated in this assay correlates to the amount of ADP generated in the kinase assay, indicating kinase activity. […] The IC50 for each compound was derived from fitting the data to the four-parameter logistic equation by Dotmatics.

Experiment [2] deals with PI3Kα (p110[H1047R]/p85) kinase (Homo sapiens, UniProt P42336, H1047R). Put plainly: PI3Kα (p110[H1047R]/p85) kinase ADP-Glo Assay. The experiment is classed as biochemical. As to conditions: 25 uM ATP; for selectivity: WT/H1047R: ADP-Glo Assay IC50 ratio. The method, then: PI3Kα (p110[H1047R]/p85) kinase ADP-Glo Assay. Certain compounds disclosed herein were tested for inhibition of PI3Kα (p110[H1047R]/p85) kinase in assays based on the ADP-Glo™ Kinase Assay methodology. The assays were carried out in 384-well white plates in a reaction mixture containing PI3Kα (p110[H1047R]/p85) kinase, 25 µM ATP, 5.35 µg/ml PI(4,5)P2:PS Lipid Kinase Substrate and […] compound in buffer containing 50 mM HEPES pH7.5, 50 mM NaCl, 3 mM MgCl2, 0.0025% BSA and 2 mM DTT. PI3Kα (p110[H1047R]/p85) kinase was incubated with Lipid Kinase Substrate and compound for 30 minutes at room temperature and the reaction was initiated by the addition of ATP.
Chain of PI3Kα (p110[H1047R]/p85) kinase (P42336 whole entry H1047R): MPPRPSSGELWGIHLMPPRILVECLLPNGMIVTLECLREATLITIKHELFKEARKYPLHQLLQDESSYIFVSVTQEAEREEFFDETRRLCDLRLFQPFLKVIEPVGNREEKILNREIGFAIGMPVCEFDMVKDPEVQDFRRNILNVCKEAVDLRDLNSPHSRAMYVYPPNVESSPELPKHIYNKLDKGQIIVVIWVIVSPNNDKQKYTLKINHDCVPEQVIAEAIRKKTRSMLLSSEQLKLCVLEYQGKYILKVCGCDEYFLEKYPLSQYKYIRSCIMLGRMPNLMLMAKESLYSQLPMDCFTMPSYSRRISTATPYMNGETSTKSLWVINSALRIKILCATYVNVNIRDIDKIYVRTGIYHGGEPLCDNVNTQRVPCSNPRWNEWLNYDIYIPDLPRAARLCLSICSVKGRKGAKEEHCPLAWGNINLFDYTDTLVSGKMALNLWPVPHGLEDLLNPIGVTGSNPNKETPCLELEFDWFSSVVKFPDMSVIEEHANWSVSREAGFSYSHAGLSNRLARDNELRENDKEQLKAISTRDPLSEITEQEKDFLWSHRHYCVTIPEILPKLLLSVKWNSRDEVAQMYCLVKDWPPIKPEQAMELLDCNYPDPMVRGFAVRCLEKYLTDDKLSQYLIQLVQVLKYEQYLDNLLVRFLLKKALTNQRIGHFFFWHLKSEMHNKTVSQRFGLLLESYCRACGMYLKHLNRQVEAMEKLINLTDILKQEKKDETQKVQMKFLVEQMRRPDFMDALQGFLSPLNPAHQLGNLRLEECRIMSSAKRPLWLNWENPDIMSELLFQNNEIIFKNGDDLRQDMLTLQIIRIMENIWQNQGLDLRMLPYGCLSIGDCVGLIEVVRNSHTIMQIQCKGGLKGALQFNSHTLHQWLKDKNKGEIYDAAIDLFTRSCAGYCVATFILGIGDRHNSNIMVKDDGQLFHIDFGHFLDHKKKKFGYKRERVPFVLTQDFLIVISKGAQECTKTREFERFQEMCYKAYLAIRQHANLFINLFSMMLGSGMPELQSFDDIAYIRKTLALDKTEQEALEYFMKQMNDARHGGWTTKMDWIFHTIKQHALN
Chain of PI3Kα (p110[H1047R]/p85) kinase (P27986 whole entry partner): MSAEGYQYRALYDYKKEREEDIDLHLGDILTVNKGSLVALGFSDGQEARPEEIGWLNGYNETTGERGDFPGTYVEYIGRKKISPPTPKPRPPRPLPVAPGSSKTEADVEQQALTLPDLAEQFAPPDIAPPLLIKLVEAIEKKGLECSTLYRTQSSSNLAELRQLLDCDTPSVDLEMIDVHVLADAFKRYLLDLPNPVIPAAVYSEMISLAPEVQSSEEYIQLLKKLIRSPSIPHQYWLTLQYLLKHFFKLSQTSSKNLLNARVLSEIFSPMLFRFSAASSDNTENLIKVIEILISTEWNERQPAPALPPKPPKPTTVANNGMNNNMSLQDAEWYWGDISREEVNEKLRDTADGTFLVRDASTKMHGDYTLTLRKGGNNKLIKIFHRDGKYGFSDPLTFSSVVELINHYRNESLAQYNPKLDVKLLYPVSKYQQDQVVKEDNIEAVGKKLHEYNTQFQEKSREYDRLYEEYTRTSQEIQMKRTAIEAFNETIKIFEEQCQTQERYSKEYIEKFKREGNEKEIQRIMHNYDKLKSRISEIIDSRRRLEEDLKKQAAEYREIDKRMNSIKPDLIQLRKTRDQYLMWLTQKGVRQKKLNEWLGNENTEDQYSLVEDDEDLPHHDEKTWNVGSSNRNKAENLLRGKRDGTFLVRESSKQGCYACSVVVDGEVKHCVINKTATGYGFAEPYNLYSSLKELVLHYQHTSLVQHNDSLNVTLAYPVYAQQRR
After reaction at room temperature for 120 minutes, ADP-Glo™ reagents were added to terminate the kinase reaction and deplete the remaining ATP according to the manufacture's instruction (Promega Corporation). After incubation at room temperature for 1 hour, Kinase Detection Reagent (prepared by reconstituting the lyophilized Kinase Detection Substrate with Kinase Detection Buffer of the kit) was added to convert the ADP to ATP and to allow for the newly synthesized ATP to be measured using a luciferase/luciferin reaction. After incubation at room temperature for 0.5 hour, chemiluminescence signals were recorded on a PHERAstar FSX plate reader (BMG Labtech). The chemiluminescence generated in this assay correlates to the amount of ADP generated in the kinase assay, indicating kinase activity. […] The IC50 for each compound was derived from fitting the data to the four-parameter logistic equation by Dotmatics.

The subject of experiment [3] is PI3Kα H1047R mutated cell line T-47D. Kind of experiment: Phospho-AKT (Ser473) Inhibition Assay (HTRF), T-47D. As to conditions: for IC50: Homo sapiens, T47D, T-47D, 1 hour treatment, read-out: p-AKT Inhibition assay (S473) IC50 T-47D; for Selectivity: SK-BR-3/T-47D (p-AKT): p-AKT (S473) IC50 ratio. The experiment is classed as cell-based. The method, then:
Cell Culture Maintenance. The T-47D (ATCC, HTB-133) cell line was obtained from the American Type Culture Collection. Cells were maintained in RPMI1640 medium (Gibco, REF #22400105) supplemented with 10% Fetal Bovine Serum (Gibco, REF #10091148). Cultures were maintained in a humidified incubator at 37° C. under 5% CO2/95% air.
(§1) Phospho-AKT Inhibition Assay. HTRF Phospho-AKT (Ser473) detection kit (Cisbio, REF #64AKSPEH) was used in phosphor-AKT inhibition assay. For compound screening, PI3Kα H1047R mutated cell line T-47D and WT cell line SK-BR-3 cells were seeded at a density of 3×10^4 cells per well in 96 well plate (Costar, REF #3599) in 95 μL of assay medium (MEM medium (Gibco, REF #12561-056) with 1×NEAA (Gibco, REF #11140-050), 1 mM sodium pyruvate (Gibco, REF #11360-070), and 1 g/ml human insulin (Topscience, REF #T8221)), overnight. Compounds dissolved in 10 mM stock solutions in DMSO were serially diluted 1:3 in DMSO to generate an 11-point dilution series and plated using an INTEGRA ASSIST PLUS pipetting robot. A 20× intermediate compound dilution plate in RPMI1640 medium (200 M starting compound concentration in 2% DMSO) was then prepared. Five μL of intermediate serially diluted compounds were added to the cell plate to final concentrations ranging from […] to 0.1 nM in 0.1% DMSO. 0.1% DMSO alone was used to establish the maximum signal and GDC0077 at final concentration of 10 μM was used as a reference compound for minimum signal. After 1 hour treatment, removed medium and added 50 μL of supplemented lysis buffer (1×) immediately. Incubated for at least 30 minutes at room temperature under shaking. Transferred 16 μL of cell lysate from the 96-well cell-culture plate to a 384-white detection plate (PerkinElmer, Optiplate 384, 6007299). Added 4 μL of premixed antibody solutions prepared in the detection buffer. Incubated 4 hours at room temperature in dark. The plates were read on PHERAstar FSX Microplate reader (BMG LABTECH, Inc.) using standard HTRF settings.
(§2) Relative IC50 values were determined using luminescence units by calculating percent inhibition with respect to the in-plate “MIN” (GDC0077 reference control) and “MAX” (DMSO) controls. The data were analyzed using a 4-parameter nonlinear logistic equation (four-parameter logistic concentration-response curve): Y=bottom+[(top−bottom)/1+(X/IC50) slope] • where Y=% inhibition, X=concentration of inhibitor, bottom=minimum value of y attained by curve-fit, top=maximum value of y attained by curve-fit and slope=steepness of curve at the IC50.

The test system of experiment [4] is WT cell line SK-BR-3. Kind of experiment: Phospho-AKT (Ser473) Inhibition Assay (HTRF), SK-BR-3. The format is cell-based. As to conditions: Homo sapiens; SK-BR-3, 1 hour treatment; read-out: p-AKT Inhibition assay (S473) IC50 SK-BR-3. As to the method:
The SK-BR-3 (ATCC, HTB-30) cell line was obtained from the American Type Culture Collection. Cells were maintained in McCoy' 5A medium (Gibco, REF #16600108) supplemented with 10% Fetal Bovine Serum. Cultures were maintained in a humidified incubator at 37° C. under 5% CO2/95% air.
as §1, §2

Chain of PI3Kα (p110/p85) kinase (wild type, "WT") (P42336 whole entry): as the sequence (P42336 whole entry H1047R) above, with R1047H counted along it
Chain of PI3Kα (p110/p85) kinase (wild type, "WT") (P27986 whole entry partner): as the sequence (P27986 whole entry partner) above

For the compound `Cc1cc(C(C)Nc2ccccc2C(=O)O)c2cc(C#CC3CCCCC3)n(C)c(=O)c2c1` (stereo not shown) [Example 28, 2-((1-(3-(cyclohexylethynyl)-2,7-dimethyl-1-oxo-1,2-dihydroisoquinolin-5-yl)ethyl)amino)benzoic acid], the IC50 in experiment [1] was greater than 100 µM; in experiment [2], 0.505 µM; in experiment [3], 0.472 µM; in experiment [4], 6.43 µM. Moreover, the “selectivity: WT/H1047R” value in experiment [2] is given as greater than 198. The “Selectivity: SK-BR-3/T-47D (p-AKT)” value in experiment [3] is 17.

As for `Cc1cc(C(C)Nc2ccccc2C(=O)O)c2cc(-c3cnn(-c4cccc(C#N)c4)c3)n(C)c(=O)c2c1` (stereo not shown) [Example 29, 2-((1-(3-(1-(3-cyanophenyl)-1H-pyrazol-4-yl)-2,7-dimethyl-1-oxo-1,2-dihydroisoquinolin-5-yl)ethyl)amino)benzoic acid], the IC50 in experiment [1] came out at 3.8 µM; in experiment [2], 0.26 µM; in experiment [3], 0.107 µM; in experiment [4], 2.7 µM. In experiment [2], the “selectivity: WT/H1047R” value is reported as 15. Further, the “Selectivity: SK-BR-3/T-47D (p-AKT)” value in experiment [3] was found to be 25.

For `Cc1cc([C@H](C)Nc2ccccc2C(=O)O)c2cc(-c3ccc(-c4cnn(C)c4)cc3)n(C)c(=O)c2c1` [Example 41, (S)-2-((1-(2,7-dimethyl-3-(4-(1-methyl-1H-pyrazol-4-yl)phenyl)-1-oxo-1,2-dihydroisoquinolin-5-yl)ethyl)amino)benzoic acid], the IC50 is 61 µM in experiment [1], 7.18 µM in experiment [2], greater than 10 µM in experiment [3] and 3.23 µM in experiment [4]. Moreover, the “selectivity: WT/H1047R” value in experiment [2] turned out to be 8.5.

With `Cc1cc(C(C)Nc2c(C(=O)O)nn3c2CCC3)c2cc(-c3ccccc3)n(C)c(=O)c2c1` (stereo not shown) [Example 83, 3-((1-(2,7-dimethyl-1-oxo-3-phenyl-1,2-dihydroisoquinolin-5-yl)ethyl)amino)-5,6-dihydro-4H-pyrrolo[1,2-b]pyrazole-2-carboxylic acid], the IC50 in experiment [1] is 55.5 µM; in experiment [2], 0.485 µM; in experiment [3], 6.75 µM; in experiment [4] it was greater than 10 µM. For the same compound, the “selectivity: WT/H1047R” value in experiment [2] came out at 114.5. For the same compound, the “Selectivity: SK-BR-3/T-47D (p-AKT)” value in experiment [3] is reported as greater than 1.48.

With `Cc1cc(C(C)Nc2ccccc2C(=O)O)c2cc(-c3cnc(O)nc3)n(C)c(=O)c2c1` (stereo not shown) [Example 85, 2-((1-(3-(2-hydroxypyrimidin-5-yl)-2,7-dimethyl-1-oxo-1,2-dihydroisoquinolin-5-yl)ethyl)amino)benzoic acid], the IC50 in experiment [1] is 26.8 µM; in experiment [2], 1.1 µM; in experiment [3], greater than 10 µM; in experiment [4], greater than 10 µM. For the same compound, the “selectivity: WT/H1047R” value in experiment [2] is 24.3.
